Where a SMILES comes first, the peptide text is derived from it.
Protocol: A sample of the compound of formula (Ia) in PLG gel was dissolved in aqueous acetonitrile and further diluted with water. The precipitated polymer was subsequently removed by filtration through a membrane filter. The concentration of the compound of formula (Ia) in the filtrate was determined by HPLC.

degradation found by HPLC: no extensive degradation
SMILES: CCC[C@H](NC(=O)[C@@H](NC(=O)[C@H](NC(=O)[C@@H](NC(=O)CNC(=O)CN(C)C(C)=O)C(C)C)[C@H](C)CC)[C@@H](C)O)C(=O)N[C@H](C(=O)N[C@@H](CCCN=C(N)N)C(=O)N1CCC[C@H]1C(=O)NCC)[C@@H](C)CC [compound of formula (Ia), N-Ac-Sar-Gly-Val-DIle-Thr-Nva-Ile-Arg-ProNHCH2CH3] (HELM PEPTIDE1{[ac].[Sar].G.V.[dI].T.[Nva].I.R.P.[CCN[*:1]]}$$$$V2.0)

Reference: patent US20030228365A1, “Pharmaceutical formulation” (priority 2002, published 2003)
